Results: patent US20120172228A1, “ALCOHOL ALKOXYLATES AS ADJUVANTS FOR AGROCHEMICAL FORMULATIONS” (SYNGENTA CROP PROTECTION, LLC, priority 2009, published 2012)

Key:
[1] = tested on: xanthium strumarium (XANST), setaria viridis (SETVI), abutilon theophrasti (ABUTH), chenopodium album (CHEAL); test: Adjuvant with herbicide fomesafen, track sprayer, mean across four weed species; type: in vivo; conditions: fomesafen 60 or 120 g/ha; butylene oxide adjuvants 0.2%, TEHP and Turbocharge 0.5%; 7 and 13 days
Procedure: In this example Sample 13 from Table 1 was compared to the oil adjuvant blend Turbocharge™. The herbicide fomesafen was applied to the weed species xanthium strumarium (XANST), setaria viridis (SETVI), abutilon theophrasti (ABUTH), and chenopodium album (CHEAL) at rates of 60 or 120 grams per hectare, using a laboratory track sprayer. […] Four effects were evaluated: pesticide rate (2 levels), adjuvant type (two levels), weed species (four levels) and days after application (three levels). A standard simple linear model was constructed to judge the significance of these effects. […] A model was fitted using multiple linear regression using the statistics package JMP (SAS group). The effect of each adjuvant was pulled out from the model and the least significant differences evaluated using a Student's t method. In further examples, where a greater number than two adjuvants were compared, Tukey's HSD method was used. […]
In this example the rate response of the butylene oxide adjuvant number 13 of Table 1 was measured to display the excellent performance of this adjuvant at very low rates. compared to the adjuvant Brij™96V. […]
In this example the rate response of the butylene oxide sample 27 of Table 1 was measured, displaying the excellent performance of this adjuvant compared to the commercial adjuvant Turbocharge™, used at a rate of 0.5% by volume. […]

setaria viridis (SETVI) = test: Adjuvant with herbicide nicosulfuron on SETVI; type: in vivo; conditions: nicosulfuron 30 or 60 g/ha; adjuvants 0.2% of spray water; 14 and 21 days after application
Procedure: In this example Sample 13 from Table 1 was compared to the oil adjuvant blend Turbocharge™. The herbicide fomesafen was applied to the weed species xanthium strumarium (XANST), setaria viridis (SETVI), abutilon theophrasti (ABUTH), and chenopodium album (CHEAL) at rates of 60 or 120 grams per hectare, using a laboratory track sprayer. Each experiment was replicated four times and the percentage damage to the weeds was assessed visually at time periods of 7, 14 and 21 days after application. Each adjuvant was applied at a rate of 0.5% of the volume of the spray water. Four effects were evaluated: pesticide rate (2 levels), adjuvant type (two levels), weed species (four levels) and days after application (three levels). […] The effect of each adjuvant was pulled out from the model and the least significant differences evaluated using a Student's t method. […]
In this example the butylene oxide adjuvant Sample 13 of Table 1 was compared to the commercial oil adjuvant blend Atplus™411F. […] Each experiment was replicated four times and the percentage damage to the weeds was assessed visually at time periods of 14 and 21 days after application. […]
In this example the responses of the butylene oxide adjuvants 13, 17, 19, 21, 22 and 23 of Table 1 were measured at an application rate of 0.2% of the volume of the spray solution used. […]

CCCCC(CC)COP(=O)(OCC(CC)CCCC)OCC(CC)CCCC (centres unmarked) [TEHP, tris 2-ethylhexyl phosphate]
Mean kill across weeds (%) [1]: 72.7%
mean efficacy (percentage damage to the weeds), SETVI (setaria viridis (SETVI)): 77.08; A %
